How the values were obtained:
La Crosse virus = assay: Antiviral activity against La Crosse virus infected in african green monkey Vero cells assessed as inhibition of virus-induced cytopathic effect by fluorometric analysis; assay type: functional, organism-based
Vaccinia virus = assay: Antiviral activity against Vaccinia virus; assay type: functional, organism-based; settings: Orthopoxvirus vaccinia

In the case of `CC(C)(C)c1ccc(C(=O)NC(=S)Nc2ccc(Cl)cc2Cl)cc1`, the EC50 (La Crosse virus) is reported as > 25000 nM and the EC50 (Vaccinia virus) is reported as > 25000 nM.

For `CNc1ccc(NC(=S)NC(=O)c2ccc(C(C)(C)C)cc2)cc1`, the EC50 (La Crosse virus) was 1450 nM and the EC50 (Vaccinia virus) was 1160 nM.

For `CC(C)(C)c1ccc(C(=O)NC(=S)Nc2ccc(Cl)cc2)cc1`, the EC50 (La Crosse virus) was > 25000 nM and the EC50 (Vaccinia virus) was > 25000 nM.

For `COc1cc(N/C(=N/C#N)NC(=O)c2ccc(C(C)(C)C)cc2)ccc1NC(=O)c1ccccc1Cl`, the EC50 (Vaccinia virus) was > 25000 nM.

`CC(C)(C)c1ccc(C(=O)NC(=S)Nc2ccccn2)cc1` was tested, and the EC50 (La Crosse virus) was > 25000 nM and the EC50 (Vaccinia virus) was > 25000 nM.

With `COc1cc(NC(=S)NC(=O)c2ccc(C(C)(C)C)cc2)ccc1NC(N)=O` the EC50 (La Crosse virus) was 4860 nM and the EC50 (Vaccinia virus) was > 25000 nM.

Compound `Cc1ccc(NC(=S)NC(=O)c2ccc(C(C)(C)C)cc2)c(C)c1` has an EC50 (La Crosse virus) of 880 nM and an EC50 (Vaccinia virus) of 1060 nM.

With `COc1cccc(NC(=S)NC(=O)c2ccc(C(C)(C)C)cc2)c1` the EC50 (La Crosse virus) was > 25000 nM and the EC50 (Vaccinia virus) was 4070 nM.

With `COc1cc(NC(=S)NC(=O)c2ccc(C(C)(C)C)cc2)ccc1NC(=O)c1ccc2nc[nH]c2c1` the EC50 (La Crosse virus) was > 25000 nM and the EC50 (Vaccinia virus) was > 25000 nM.

For `Cc1cccc(NC(=S)NC(=O)c2ccc(C(C)(C)C)cc2)c1`, the EC50 (La Crosse virus) was 1330 nM and the EC50 (Vaccinia virus) was 1010 nM.

In the case of `COc1cc(NC(=S)NC(=O)c2ccc(C(C)(C)C)cc2)ccc1NC(=O)c1cccc(N)c1`, the EC50 (La Crosse virus) is reported as > 25000 nM and the EC50 (Vaccinia virus) is reported as > 25000 nM.

In the case of `CCN(C(=S)NC(=O)c1ccc(C(C)(C)C)cc1)c1ccc(NC(=O)c2ccccc2Cl)c(OC)c1`, the EC50 (La Crosse virus) is reported as > 25000 nM and the EC50 (Vaccinia virus) is reported as 10100 nM.

For `Cc1cccc(NC(=S)NC(=O)c2ccc(C(C)(C)C)cc2)c1Cl`, the EC50 (La Crosse virus) was 1170 nM and the EC50 (Vaccinia virus) was 1830 nM.

In the case of `CC(C)(C)c1ccc(C(=O)NC(=S)Nc2cccc([N+](=O)[O-])c2)cc1`, the EC50 (La Crosse virus) is reported as > 25000 nM and the EC50 (Vaccinia virus) is reported as > 25000 nM.

In the case of `CC(C)(C)c1ccc(C(=N)NC(=S)Nc2ccccc2Cl)cc1`, the EC50 (La Crosse virus) is reported as > 25000 nM and the EC50 (Vaccinia virus) is reported as > 25000 nM.

With `CC(C)(C)c1ccc(C(=O)NC(=S)Nc2cc(OC(F)(F)F)ccc2Cl)cc1` the EC50 (La Crosse virus) was > 25000 nM and the EC50 (Vaccinia virus) was 1900 nM.

Work on `CC(C)(C)c1ccc(C(=O)NC(=S)Nc2ccccc2[N+](=O)[O-])cc1` yielded an EC50 (La Crosse virus) of 3700 nM and an EC50 (Vaccinia virus) of 3640 nM.

For `COc1cc(NC(=S)NC(=O)c2ccc(C(C)(C)C)cc2)ccc1NC(=O)c1ccccc1N`, the EC50 (La Crosse virus) was > 25000 nM and the EC50 (Vaccinia virus) was 2610 nM.

`COc1cc(NC(=S)NC(=O)c2ccc(C(C)(C)C)cc2)ccc1NC(=O)c1ccccn1` was tested, and the EC50 (La Crosse virus) was > 25000 nM and the EC50 (Vaccinia virus) was > 25000 nM.

`CC(C)(C)c1ccc(C(=O)NC(=S)Nc2cccc(Cl)c2)cc1` showed an EC50 (La Crosse virus) of 4160 nM and an EC50 (Vaccinia virus) of 1580 nM.

`COc1cc(NC(=S)NC(=O)c2ccc(C(C)(C)C)cc2)ccc1NC(=O)CC(=O)O` was tested, and the EC50 (La Crosse virus) was > 25000 nM and the EC50 (Vaccinia virus) was > 25000 nM.

`COc1cc(NC(=S)NC(=O)c2ccc(C(C)(C)C)cc2)ccc1NC(=O)CCC(=O)O` was tested, and the EC50 (La Crosse virus) was > 25000 nM and the EC50 (Vaccinia virus) was > 25000 nM.

With `COc1cc(NC(=S)NC(=O)c2ccc(C(C)(C)C)cc2)ccc1NC(=N)N` the EC50 (La Crosse virus) was > 25000 nM and the EC50 (Vaccinia virus) was > 25000 nM.

`CC(C)(C)c1ccc(C(=O)NC(=S)Nc2ccc(N)cc2Cl)cc1` showed an EC50 (La Crosse virus) of 750 nM and an EC50 (Vaccinia virus) of 620 nM.

In the case of `Cc1ccc(C)c(NC(=S)NC(=O)c2ccc(C(C)(C)C)cc2)c1`, the EC50 (La Crosse virus) is reported as > 25000 nM and the EC50 (Vaccinia virus) is reported as 2860 nM.

`CC(C)(C)c1ccc(C(=O)NC(=S)Nc2ccc(NC(=O)c3ccccc3Cl)c(N)c2)cc1` gave an EC50 (La Crosse virus) of 50 nM and an EC50 (Vaccinia virus) of 60 nM.

`Cc1cccc(Cl)c1NC(=S)NC(=O)c1ccc(C(C)(C)C)cc1` gave an EC50 (La Crosse virus) of 940 nM and an EC50 (Vaccinia virus) of 2490 nM.

Work on `CC(C)(C)c1ccc(C(=O)NC(=S)Nc2ccc(NC(=O)c3ccccc3Cl)c(O)c2)cc1` yielded an EC50 (La Crosse virus) of 210 nM and an EC50 (Vaccinia virus) of 230 nM.

`COc1cc(NC(=S)NC(=O)c2ccc(C(C)(C)C)cc2)ccc1NC(=N)c1ccccc1Cl` gave an EC50 (La Crosse virus) of 2060 nM and an EC50 (Vaccinia virus) of 1750 nM.

With `COc1ccccc1NC(=S)NC(=O)c1ccc(C(C)(C)C)cc1` the EC50 (La Crosse virus) was 1150 nM and the EC50 (Vaccinia virus) was 1390 nM.

`COc1cc(NC(=S)NC(=O)c2ccc(C(C)(C)C)cc2)ccc1NC(=O)c1ncccn1` was tested, and the EC50 (La Crosse virus) was > 25000 nM and the EC50 (Vaccinia virus) was > 25000 nM.

Work on `CCS/C(=N\C(=O)c1ccc(C(C)(C)C)cc1)Nc1ccccc1Cl` yielded an EC50 (La Crosse virus) of 510 nM and an EC50 (Vaccinia virus) of 1910 nM.

With `Cc1cccc(NC(=S)NC(=O)c2ccc(C(C)(C)C)cc2)c1C` the EC50 (La Crosse virus) was 2590 nM and the EC50 (Vaccinia virus) was 1830 nM.

In the case of `COc1cc(NC(=S)NC(=O)c2ccc(C(C)(C)C)cc2)ccc1NC(=O)CCCCN(C)C`, the EC50 (La Crosse virus) is reported as > 25000 nM and the EC50 (Vaccinia virus) is reported as > 25000 nM.

For `Cc1ccc(NC(=S)NC(=O)c2ccc(C(C)(C)C)cc2)cc1`, the EC50 (La Crosse virus) was 4860 nM and the EC50 (Vaccinia virus) was 1910 nM.

In the case of `CC(C)(C)c1ccc(C(=O)NC(=S)Nc2cccc(CN)c2)cc1`, the EC50 (La Crosse virus) is reported as > 25000 nM and the EC50 (Vaccinia virus) is reported as > 25000 nM.

Compound `COc1cc(NC(=S)NC(=O)c2ccc(C(C)(C)C)cc2)ccc1NCc1ccccc1Cl` has an EC50 (La Crosse virus) of 200 nM and an EC50 (Vaccinia virus) of 340 nM.

`COc1cc(NC(=S)NC(=O)c2ccc(C(C)(C)C)cc2)ccc1NC(=S)c1ccccc1Cl` showed an EC50 (La Crosse virus) of 640 nM and an EC50 (Vaccinia virus) of 990 nM.

`COC(=O)CC(=O)Nc1ccc(NC(=S)NC(=O)c2ccc(C(C)(C)C)cc2)cc1OC` was tested, and the EC50 (La Crosse virus) was > 25000 nM and the EC50 (Vaccinia virus) was 18600 nM.

With `CN(Cc1ccccc1)S(=O)(=O)c1ccc(NC(=S)NC(=O)c2ccc(C(C)(C)C)cc2)cc1` the EC50 (La Crosse virus) was > 25000 nM and the EC50 (Vaccinia virus) was > 25000 nM.

From ChEMBL document CHEMBL2040790 (Bioorg Med Chem Lett, 2012)
